Laboratory results: patent US8697739B2, “Bicyclic acetyl-CoA carboxylase inhibitors and uses thereof” (Novartis AG, priority 2010, dated 2014)

Target: T1, human acetyl-CoA carboxylase 2 (ACC2) (Homo sapiens, UniProt O00763)
T1 construct: The cDNA encoding amino acids 144 to 2458 of human acetyl-CoA carboxylase 2; made in house; host or cells: Sf9 insect cells (baculovirus, pFastBac1)
Experiment: Acetyl-CoA carboxylase enzyme assay (malonyl-CoA formation by LC/MS/MS)
Format: biochemical
Conditions: recombinant human ACC2 (aa 144-2458); read-out: IC50 ACC2
Procedure, shortened: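 Malonyl-CoA formation was read by LC/MS/MS MRM against a [13C3]-malonyl-CoA internal standard, after acetic acid quench. The enzyme was baculovirus/Sf9-expressed human ACC2 residues 144–2458, given 15 minutes room-temperature compound preincubation in HEPES pH 7.5 buffer with MgCl2, citrate and DTT. Substrate solution held 50 μM acetyl-CoA, 120 μM ATP and 2 mM KHCO3.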

T1 sequence (O00763 144-2458): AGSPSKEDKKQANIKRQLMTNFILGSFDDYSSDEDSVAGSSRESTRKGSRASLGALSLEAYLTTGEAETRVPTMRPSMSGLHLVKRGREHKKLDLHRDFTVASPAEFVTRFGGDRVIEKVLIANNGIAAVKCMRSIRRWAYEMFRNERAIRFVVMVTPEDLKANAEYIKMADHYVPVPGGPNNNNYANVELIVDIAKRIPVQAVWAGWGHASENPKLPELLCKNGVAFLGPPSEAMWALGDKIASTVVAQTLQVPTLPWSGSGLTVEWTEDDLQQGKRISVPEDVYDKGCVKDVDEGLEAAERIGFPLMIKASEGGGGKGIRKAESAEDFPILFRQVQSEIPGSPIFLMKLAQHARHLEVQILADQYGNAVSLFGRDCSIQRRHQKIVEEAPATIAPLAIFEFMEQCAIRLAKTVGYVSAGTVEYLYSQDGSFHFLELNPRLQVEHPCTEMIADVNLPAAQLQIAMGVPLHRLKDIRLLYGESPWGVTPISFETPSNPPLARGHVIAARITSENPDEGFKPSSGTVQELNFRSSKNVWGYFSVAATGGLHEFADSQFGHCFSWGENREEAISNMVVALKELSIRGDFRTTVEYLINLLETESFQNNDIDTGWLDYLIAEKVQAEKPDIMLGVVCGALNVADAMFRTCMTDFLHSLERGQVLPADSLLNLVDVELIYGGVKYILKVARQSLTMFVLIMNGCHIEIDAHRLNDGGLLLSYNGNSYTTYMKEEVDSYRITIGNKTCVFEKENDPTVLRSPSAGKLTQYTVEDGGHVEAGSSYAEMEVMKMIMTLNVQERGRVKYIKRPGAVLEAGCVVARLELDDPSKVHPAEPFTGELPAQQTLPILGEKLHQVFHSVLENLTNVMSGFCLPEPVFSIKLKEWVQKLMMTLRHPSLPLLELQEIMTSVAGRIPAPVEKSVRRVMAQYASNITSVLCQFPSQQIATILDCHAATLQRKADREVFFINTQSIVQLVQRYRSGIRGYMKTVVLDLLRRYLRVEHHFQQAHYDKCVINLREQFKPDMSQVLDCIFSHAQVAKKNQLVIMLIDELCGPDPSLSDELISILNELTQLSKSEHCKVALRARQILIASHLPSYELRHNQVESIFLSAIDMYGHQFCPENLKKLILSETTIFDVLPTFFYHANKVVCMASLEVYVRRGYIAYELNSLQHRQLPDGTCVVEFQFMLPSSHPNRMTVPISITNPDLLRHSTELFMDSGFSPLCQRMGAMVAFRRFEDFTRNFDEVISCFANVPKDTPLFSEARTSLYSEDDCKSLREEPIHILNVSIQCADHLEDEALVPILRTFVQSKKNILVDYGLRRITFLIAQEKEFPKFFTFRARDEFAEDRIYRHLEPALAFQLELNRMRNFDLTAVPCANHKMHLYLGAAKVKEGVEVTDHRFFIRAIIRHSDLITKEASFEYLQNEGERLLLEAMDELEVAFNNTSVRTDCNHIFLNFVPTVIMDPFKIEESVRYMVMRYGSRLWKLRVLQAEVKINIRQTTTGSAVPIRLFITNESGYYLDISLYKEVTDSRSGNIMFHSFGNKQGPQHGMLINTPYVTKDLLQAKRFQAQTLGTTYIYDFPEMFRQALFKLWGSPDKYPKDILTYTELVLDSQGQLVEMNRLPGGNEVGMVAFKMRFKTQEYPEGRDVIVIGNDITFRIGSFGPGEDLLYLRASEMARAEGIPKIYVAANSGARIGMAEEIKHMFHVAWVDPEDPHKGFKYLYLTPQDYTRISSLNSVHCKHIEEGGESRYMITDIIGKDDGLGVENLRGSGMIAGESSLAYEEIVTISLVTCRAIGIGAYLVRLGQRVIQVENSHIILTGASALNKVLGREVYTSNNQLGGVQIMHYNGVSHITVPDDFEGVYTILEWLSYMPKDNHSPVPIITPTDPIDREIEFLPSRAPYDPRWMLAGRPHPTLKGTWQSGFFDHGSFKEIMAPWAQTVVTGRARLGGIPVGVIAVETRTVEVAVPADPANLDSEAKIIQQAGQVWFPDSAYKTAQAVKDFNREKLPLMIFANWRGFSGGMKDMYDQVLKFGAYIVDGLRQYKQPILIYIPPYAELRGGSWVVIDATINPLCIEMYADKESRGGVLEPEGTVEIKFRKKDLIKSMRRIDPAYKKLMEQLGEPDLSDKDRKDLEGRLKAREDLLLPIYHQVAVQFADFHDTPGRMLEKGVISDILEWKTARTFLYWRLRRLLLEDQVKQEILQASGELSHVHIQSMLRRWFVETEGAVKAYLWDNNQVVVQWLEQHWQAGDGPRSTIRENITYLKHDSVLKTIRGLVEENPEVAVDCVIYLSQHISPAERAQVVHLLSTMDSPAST

Row | SMILES | IC50
1 | COCc1nnc(-c2ccc(NS(=O)(=O)c3ccc4nc(-c5ccccc5)[nH]c4c3)cc2)o1 [Example 520, N-(4-(5-(methoxymethyl)-1,3,4-oxadiazol-2-yl)phenyl)-2-phenyl-1H-benzo[d]imidazole-6-sulfonamide] | 9350 nM
2 | CC(C)OC(=O)c1ccc(NS(=O)(=O)c2ccc3[nH]c(Nc4ccccc4)nc3c2)cc1 [Example 521, isopropyl 4-(2-(phenylamino)-1H-benzo[d]imidazole-5-sulfonamido)benzoate] | 239 nM
3 | CC(C)OC(=O)c1ccc(NS(=O)(=O)c2ccc3[nH]c(Nc4ccc(F)cc4)nc3c2)cc1 [Example 522, isopropyl 4-(2-(4-fluorophenylamino)-1H-benzo[d]imidazole-5-sulfonamido)benzoate] | 320 nM
4 | COc1ccc(Nc2nc3cc(S(=O)(=O)Nc4ccc(C(=O)OC(C)C)cc4)ccc3[nH]2)cc1 [Example 523, isopropyl 4-(2-(4-methoxyphenylamino)-1H-benzo[d]imidazole-5-sulfonamido)benzoate] | 463 nM
5 | COc1cccc(Nc2nc3cc(S(=O)(=O)Nc4ccc(C(=O)OC(C)C)cc4)ccc3[nH]2)c1 [Example 524, isopropyl 4-(2-(3-methoxyphenylamino)-1H-benzo[d]imidazole-5-sulfonamido)benzoate] | 360 nM
6 | CC(C)OC(=O)c1ccc(NS(=O)(=O)c2ccc3[nH]c(Nc4cccc(C#N)c4)nc3c2)cc1 [Example 525, isopropyl 4-(2-(3-cyanophenylamino)-1H-benzo[d]imidazole-5-sulfonamido)benzoate] | 166 nM
7 | CC(C)OC(=O)c1ccc(NS(=O)(=O)c2ccc3[nH]c(Nc4ccc5c(c4)OCCO5)nc3c2)cc1 [Example 526, isopropyl 4-(2-(2,3-dihydrobenzo[b][1,4]dioxin-6-ylamino)-1H-benzo[d]imidazole-5-sulfonamido)benzoate] | 178 nM
8 | CC(C)OC(=O)c1ccc(NS(=O)(=O)c2ccc3[nH]c(Nc4ccc5nsnc5c4)nc3c2)cc1 [Example 527, isopropyl 4-(2-(benzo[c][1,2,5]thiadiazol-5-ylamino)-1H-benzo[d]imidazole-5-sulfonamido)benzoate] | 169 nM
9 | CC(C)OC(=O)c1ccc(NS(=O)(=O)c2ccc3[nH]c(Nc4ccc(S(N)(=O)=O)cc4)nc3c2)cc1 [Example 528, isopropyl 4-(2-(4-sulfamoylphenylamino)-1H-benzo[d]imidazole-5-sulfonamido)benzoate] | 41 nM
10 | CC(C)OC(=O)c1ccc(NS(=O)(=O)c2ccc3[nH]c(Nc4ccc(Cl)cc4)nc3c2)cc1 [Example 529, isopropyl 4-(2-(4-chlorophenylamino)-1H-benzo[d]imidazole-5-sulfonamido)benzoate] | 644 nM
11 | COc1cc(Nc2nc3cc(S(=O)(=O)Nc4ccc(C(=O)OC(C)C)cc4)ccc3[nH]2)cc(OC)c1 [Example 530, isopropyl 4-(2-(3,5-dimethoxyphenylamino)-1H-benzo[d]imidazole-5-sulfonamido)benzoate] | 612 nM
12 | COc1ccc(Nc2nc3cc(S(=O)(=O)Nc4ccc(C(=O)OC(C)C)cc4)ccc3[nH]2)cc1OC [Example 531, isopropyl 4-(2-(3,4-dimethoxyphenylamino)-1H-benzo[d]imidazole-5-sulfonamido)benzoate] | 248 nM
13 | CC(C)OC(=O)c1ccc(NS(=O)(=O)c2ccc3[nH]c(Nc4ccc(N5CCOCC5)cc4)nc3c2)cc1 [Example 532, isopropyl 4-(2-(4-morpholinophenylamino)-1H-benzo[d]imidazole-5-sulfonamido)benzoate] | 109 nM
14 | CC(C)OC(=O)c1ccc(NS(=O)(=O)c2ccc3[nH]c(Nc4cccc(F)c4F)nc3c2)cc1 [Example 533, isopropyl 4-(2-(2,3-difluorophenylamino)-1H-benzo[d]imidazole-5-sulfonamido)benzoate] | 641 nM
15 | CCOC(=O)Nc1ccc(Nc2nc3cc(S(=O)(=O)Nc4ccc(C(=O)OC(C)C)cc4)ccc3[nH]2)cc1 [Example 534, isopropyl 4-(2-(4-(ethoxycarbonylamino)phenylamino)-1H-benzo[d]imidazole-5-sulfonamido)benzoate] | 524 nM
16 | CC(C)OC(=O)c1ccc(NS(=O)(=O)c2ccc3[nH]c(Nc4cccc(F)c4)nc3c2)cc1 [Example 535, isopropyl 4-(2-(3-fluorophenylamino)-1H-benzo[d]imidazole-5-sulfonamido)benzoate] | 225 nM
17 | Cc1cccc(Nc2nc3cc(S(=O)(=O)Nc4ccc(C(=O)OC(C)C)cc4)ccc3[nH]2)c1 [Example 536, isopropyl 4-(2-(m-tolylamino)-1H-benzo[d]imidazole-5-sulfonamido)benzoate] | 412 nM
18 | CCN(CC)c1ccc(Nc2nc3cc(S(=O)(=O)Nc4ccc(C(=O)OC(C)C)cc4)ccc3[nH]2)cc1 [Example 537, isopropyl 4-(2-(4-(diethylamino)phenylamino)-1H-benzo[d]imidazole-5-sulfonamido)benzoate] | 290 nM

Row | SMILES | IC50
19 | CC(C)OC(=O)c1ccc(NS(=O)(=O)c2ccc3[nH]c(Nc4cccc([N+](=O)[O-])c4)nc3c2)cc1 [Example 538, isopropyl 4-(2-(3-nitrophenylamino)-1H-benzo[d]imidazole-5-sulfonamido)benzoate] | 77 nM
20 | CC(C)OC(=O)c1ccc(NS(=O)(=O)c2ccc3[nH]c(Nc4ccc(N5CCOCC5)nc4)nc3c2)cc1 [Example 539, isopropyl 4-(2-(6-morpholinopyridin-3-ylamino)-1H-benzo[d]imidazole-5-sulfonamido)benzoate] | 221 nM
21 | Cc1cccc(C)c1Nc1nc2cc(S(=O)(=O)Nc3ccc(C(=O)OC(C)C)cc3)ccc2[nH]1 [Example 540, isopropyl 4-(2-(2,6-dimethylphenylamino)-1H-benzo[d]imidazole-5-sulfonamido)benzoate] | > 139000 nM
22 | CC(=O)c1cccc(Nc2nc3cc(S(=O)(=O)Nc4ccc(C(=O)OC(C)C)cc4)ccc3[nH]2)c1 [Example 541, isopropyl 4-(2-(3-acetylphenylamino)-1H-benzo[d]imidazole-5-sulfonamido)benzoate] | 86 nM
23 | CC(C)OC(=O)c1ccc(NS(=O)(=O)c2ccc3[nH]c(Nc4ccc(F)c(Cl)c4)nc3c2)cc1 [Example 542, isopropyl 4-(2-(3-chloro-4-fluorophenylamino)-1H-benzo[d]imidazole-5-sulfonamido)benzoate] | 575 nM
24 | COc1cc(Nc2nc3cc(S(=O)(=O)Nc4ccc(C(=O)OC(C)C)cc4)ccc3[nH]2)cc(OC)c1OC [Example 543, isopropyl 4-(2-(3,4,5-trimethoxyphenylamino)-1H-benzo[d]imidazole-5-sulfonamido)benzoate] | 280 nM
25 | CC(C)OC(=O)c1ccc(NS(=O)(=O)c2ccc3[nH]c(Nc4ccc(Cl)c(S(N)(=O)=O)c4)nc3c2)cc1 [Example 544, isopropyl 4-(2-(4-chloro-3-sulfamoylphenylamino)-1H-benzo[d]imidazole-5-sulfonamido)benzoate] | 35 nM
26 | CC(C)OC(=O)c1ccc(NS(=O)(=O)c2ccc3[nH]c(Nc4ccc(-n5cccn5)cc4)nc3c2)cc1 [Example 545, isopropyl 4-(2-(4-(1H-pyrazol-1-yl)phenylamino)-1H-benzo[d]imidazole-5-sulfonamido)benzoate] | 623 nM
27 | CC(C)OC(=O)c1ccc(NS(=O)(=O)c2ccc3[nH]c(Nc4ccccc4F)nc3c2)cc1 [Example 546, isopropyl 4-(2-(2-fluorophenylamino)-1H-benzo[d]imidazole-5-sulfonamido)benzoate] | 845 nM
28 | CC(C)OC(=O)c1ccc(NS(=O)(=O)c2ccc3[nH]c(Nc4cccc(Cl)c4)nc3c2)cc1 [Example 547, isopropyl 4-(2-(3-chlorophenylamino)-1H-benzo[d]imidazole-5-sulfonamido)benzoate] | 374 nM
29 | CC(=O)c1ccc(Nc2nc3cc(S(=O)(=O)Nc4ccc(C(=O)OC(C)C)cc4)ccc3[nH]2)cc1 [Example 548, isopropyl 4-(2-(4-acetylphenylamino)-1H-benzo[d]imidazole-5-sulfonamido)benzoate] | 75 nM
30 | CC(C)OC(=O)c1ccc(NS(=O)(=O)c2ccc3[nH]c(Nc4cccc(-n5ccsc5=O)c4)nc3c2)cc1 [Example 549, isopropyl 4-(2-(3-(2-oxothiazol-3(2H)-yl)phenylamino)-1H-benzo[d]imidazole-5-sulfonamido)benzoate] | 737 nM
31 | CC(C)OC(=O)c1ccc(NS(=O)(=O)c2ccc3[nH]c(Nc4ccc([N+](=O)[O-])cc4)nc3c2)cc1 [Example 550, isopropyl 4-(2-(4-nitrophenylamino)-1H-benzo[d]imidazole-5-sulfonamido)benzoate] | 240 nM
32 | CC(C)OC(=O)c1ccc(NS(=O)(=O)c2ccc3[nH]c(Nc4ccc(N(C)C)cc4)nc3c2)cc1 [Example 551, isopropyl 4-(2-(4-(dimethylamino)phenylamino)-1H-benzo[d]imidazole-5-sulfonamido)benzoate] | 282 nM
33 | CC(C)OC(=O)c1ccc(NS(=O)(=O)c2ccc3[nH]c(Nc4ccc(C#N)cc4)nc3c2)cc1 [Example 552, isopropyl 4-(2-(4-cyanophenylamino)-1H-benzo[d]imidazole-5-sulfonamido)benzoate] | 334 nM
34 | CC(C)OC(=O)c1ccc(NS(=O)(=O)c2ccc3[nH]c(Nc4cccc(C(C)O)c4)nc3c2)cc1 (centres unmarked) [Example 553, isopropyl 4-(2-(3-(1-hydroxyethyl)phenylamino)-1H-benzo[d]imidazole-5-sulfonamido)benzoate] | 119 nM
35 | CC(C)OC(=O)[C@H]1CC[C@H](NS(=O)(=O)c2ccc3[nH]c(Nc4ccccc4)nc3c2)CC1 [Example 554, (1r,4r)-isopropyl 4-(2-(phenylamino)-1H-benzo[d]imidazole-5-sulfonamido)cyclohexanecarboxylate] | 28 nM
